# Legend:
# Test in all cases: relative viability (nuclei count vs DMSO), 5 days (fraction); higher = more cells survive
# [1] = tested on: ABC-1
# Outline: (§1)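 Medians of duplicate plates are given as relative viability. That measure is the nuclei count in treated wells divided by the count in vehicle wells. Counts were taken on 4× images of lung cancer cell lines in 1536-well plates, 5 days after pin-tool dosing the day after seeding with one drug alone or a fixed anchor-drug dose plus five library-drug doses (not always all listed) in √10 steps.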
# [2] = tested on: NCI-H2126
# Outline: as §1
# [3] = tested on: Calu-6
# Outline: as §1
# [4] = tested on: NCI-H1703
# Outline: as §1
# [5] = tested on: A549
# Outline: as §1
# [6] = tested on: NCI-H1299
# Outline: as §1
# [7] = tested on: EKVX
# Outline: as §1
# [8] = tested on: IA-LM
# Outline: as §1
# [9] = tested on: EBC-1
# Outline: as §1
smiles,measurement,setting,value
CC1(C)CCC(c2ccc(Cl)cc2)=C(CN2CCN(c3ccc(C(=O)NS(=O)(=O)c4ccc(N[C@H](CCN5CCOCC5)CSc5ccccc5)c(S(=O)(=O)C(F)(F)F)c4)cc3)CC2)C1 [Navitoclax] + Cc1nc(NC(=O)N2CCC[C@H]2C(N)=O)sc1-c1ccnc(C(C)(C)C(F)(F)F)c1 [Alpelisib] (partner 2 µM),relative viability,[1]; first compound 0.005 µM,1.14
same,relative viability,[1]; first compound 0.01581 µM,1.39
same,relative viability,[1]; first compound 0.05 µM,1.04
same,relative viability,[1]; first compound 0.1581 µM,0.899
same,relative viability,[1]; first compound 0.5 µM,1.01
same,relative viability,[2]; first compound 0.005 µM,0.7
same,relative viability,[2]; first compound 0.01581 µM,0.764
same,relative viability,[2]; first compound 0.05 µM,0.757
same,relative viability,[2]; first compound 0.1581 µM,0.727
same,relative viability,[2]; first compound 0.5 µM,0.771
same,relative viability,[3]; first compound 0.005 µM,0.973
same,relative viability,[3]; first compound 0.01581 µM,1.08
same,relative viability,[3]; first compound 0.05 µM,0.943
same,relative viability,[3]; first compound 0.1581 µM,0.875
same,relative viability,[3]; first compound 0.5 µM,0.938
same,relative viability,[4]; first compound 0.005 µM,0.308
same,relative viability,[4]; first compound 0.01581 µM,0.406
same,relative viability,[4]; first compound 0.05 µM,0.425
same,relative viability,[4]; first compound 0.1581 µM,0.457
same,relative viability,[4]; first compound 0.5 µM,0.336
same,relative viability,[5]; first compound 0.005 µM,0.774
same,relative viability,[5]; first compound 0.01581 µM,0.932
same,relative viability,[5]; first compound 0.05 µM,0.922
same,relative viability,[5]; first compound 0.1581 µM,0.803
same,relative viability,[5]; first compound 0.5 µM,0.778
same,relative viability,[6]; first compound 0.005 µM,1.01
same,relative viability,[6]; first compound 0.01581 µM,1.09
same,relative viability,[6]; first compound 0.05 µM,1.11
same,relative viability,[6]; first compound 0.1581 µM,1.06
same,relative viability,[6]; first compound 0.5 µM,1.03
same,relative viability,[7]; first compound 0.005 µM,0.828
same,relative viability,[7]; first compound 0.01581 µM,1.15
same,relative viability,[7]; first compound 0.05 µM,0.765
same,relative viability,[7]; first compound 0.1581 µM,0.928
same,relative viability,[7]; first compound 0.5 µM,0.833
same,relative viability,[8]; first compound 0.005 µM,0.69
same,relative viability,[8]; first compound 0.01581 µM,0.986
same,relative viability,[8]; first compound 0.05 µM,0.737
same,relative viability,[8]; first compound 0.1581 µM,0.792
same,relative viability,[8]; first compound 0.5 µM,0.833
same,relative viability,[9]; first compound 0.005 µM,0.781
same,relative viability,[9]; first compound 0.01581 µM,1.13
same,relative viability,[9]; first compound 0.05 µM,0.928
same,relative viability,[9]; first compound 0.1581 µM,0.829
same,relative viability,[9]; first compound 0.5 µM,0.592
Oc1nc(-c2ccc(C(F)(F)F)cc2)nc2c1CSCC2 [XAV939] + CS(=O)(=O)CCNCc1ccc(-c2ccc3ncnc(Nc4ccc(OCc5cccc(F)c5)c(Cl)c4)c3c2)o1 [Lapatinib] (partner 2 µM),relative viability,[1]; first compound 0.08 µM,1.34
same,relative viability,[1]; first compound 0.253 µM,1.08
same,relative viability,[1]; first compound 0.8 µM,1.26
same,relative viability,[1]; first compound 2.53 µM,0.657
same,relative viability,[2]; first compound 0.08 µM,0.739
same,relative viability,[2]; first compound 0.253 µM,0.583
same,relative viability,[2]; first compound 0.8 µM,0.667
same,relative viability,[2]; first compound 2.53 µM,0.585
same,relative viability,[3]; first compound 0.08 µM,1.08
same,relative viability,[3]; first compound 0.253 µM,0.945
same,relative viability,[3]; first compound 0.8 µM,0.991
same,relative viability,[3]; first compound 2.53 µM,0.903
same,relative viability,[4]; first compound 0.08 µM,1.21
same,relative viability,[4]; first compound 0.253 µM,1.08
same,relative viability,[4]; first compound 0.8 µM,1.15
same,relative viability,[4]; first compound 2.53 µM,0.959
same,relative viability,[5]; first compound 0.08 µM,1.1
same,relative viability,[5]; first compound 0.253 µM,0.985
same,relative viability,[5]; first compound 0.8 µM,0.897
same,relative viability,[5]; first compound 2.53 µM,0.765
same,relative viability,[6]; first compound 0.08 µM,0.989
same,relative viability,[6]; first compound 0.253 µM,1.01
same,relative viability,[6]; first compound 0.8 µM,0.962
same,relative viability,[6]; first compound 2.53 µM,0.97
same,relative viability,[7]; first compound 0.08 µM,0.193
same,relative viability,[7]; first compound 0.253 µM,0.181
same,relative viability,[7]; first compound 0.8 µM,0.162
same,relative viability,[7]; first compound 2.53 µM,0.125
same,relative viability,[8]; first compound 0.08 µM,0.901
same,relative viability,[8]; first compound 0.253 µM,0.64
same,relative viability,[8]; first compound 0.8 µM,0.687
same,relative viability,[8]; first compound 2.53 µM,0.483
same,relative viability,[9]; first compound 0.08 µM,0.206
same,relative viability,[9]; first compound 0.253 µM,0.205
same,relative viability,[9]; first compound 0.8 µM,0.218
same,relative viability,[9]; first compound 2.53 µM,0.209
Oc1nc(-c2ccc(C(F)(F)F)cc2)nc2c1CSCC2 [XAV939] + CS(=O)(=O)N1CCN(Cc2cc3nc(-c4cccc5[nH]ncc45)nc(N4CCOCC4)c3s2)CC1 [Pictilisib] (partner 1 µM),relative viability,[1]; first compound 0.08 µM,0.759
same,relative viability,[1]; first compound 0.253 µM,0.581
same,relative viability,[1]; first compound 0.8 µM,0.602
same,relative viability,[1]; first compound 2.53 µM,0.348
same,relative viability,[2]; first compound 0.08 µM,0.477
same,relative viability,[2]; first compound 0.253 µM,0.448
same,relative viability,[2]; first compound 0.8 µM,0.473
same,relative viability,[2]; first compound 2.53 µM,0.406
same,relative viability,[3]; first compound 0.08 µM,1.09
same,relative viability,[3]; first compound 0.253 µM,0.843
same,relative viability,[3]; first compound 0.8 µM,0.972
same,relative viability,[3]; first compound 2.53 µM,0.841
same,relative viability,[4]; first compound 0.08 µM,0.275
same,relative viability,[4]; first compound 0.253 µM,0.243
same,relative viability,[4]; first compound 0.8 µM,0.258
same,relative viability,[4]; first compound 2.53 µM,0.241
same,relative viability,[5]; first compound 0.08 µM,0.629
same,relative viability,[5]; first compound 0.253 µM,0.491
same,relative viability,[5]; first compound 0.8 µM,0.372
same,relative viability,[5]; first compound 2.53 µM,0.296
same,relative viability,[6]; first compound 0.08 µM,0.857
same,relative viability,[6]; first compound 0.253 µM,0.701
same,relative viability,[6]; first compound 0.8 µM,0.642
same,relative viability,[6]; first compound 2.53 µM,0.511
same,relative viability,[7]; first compound 0.08 µM,0.413
same,relative viability,[7]; first compound 0.253 µM,0.301
same,relative viability,[7]; first compound 0.8 µM,0.377
same,relative viability,[7]; first compound 2.53 µM,0.24
same,relative viability,[8]; first compound 0.08 µM,0.449
same,relative viability,[8]; first compound 0.253 µM,0.317
same,relative viability,[8]; first compound 0.8 µM,0.245
same,relative viability,[8]; first compound 2.53 µM,0.17
same,relative viability,[9]; first compound 0.08 µM,0.437
same,relative viability,[9]; first compound 0.253 µM,0.346
same,relative viability,[9]; first compound 0.8 µM,0.329
same,relative viability,[9]; first compound 2.53 µM,0.261
